Measurements reported in patent publication US20080194548A1, “Drug Combination Therapy and Pharmaceutical Compositions for Treating Inflammatory Disorders” (priority 2005, published 2008).

How the values were obtained:
[1] = tested on: monocyte chemoattractant protein 1 (MCP1); settings: human peripheral blood mononuclear cells or cultured endothelial cells; cited from earlier work
[2] = tested on: inducible nitric oxide synthetase (i-NOS); settings: microglia and astrocytes; cited from earlier work
[3] = tested on: cytokine TNFα; settings: microglia and astrocytes; cited from earlier work
[4] = tested on: Female C57BL/6 mice; experiment: MOGp35-55-induced disease activity model in mice (oral gavage, daily disease activity score); assay type: in vivo; settings: single agent; for maximal extent and duration of disease activity: compared with control animals; for onset of disease symptoms: low and high doses, compared to animals that receive vehicle

SMILES | inhibition of MCP1 production [1] | inhibition of inducible nitric oxide synthetase (i-NOS) [2] | inhibition of the cytokine TNFα [3] | maximal extent and duration of disease activity [4] | onset of disease symptoms [4]
CC[C@H](C)C(=O)O[C@H]1C[C@@H](C)C=C2C=C[C@H](C)[C@H](CC[C@@H]3C[C@@H](O)CC(=O)O3)[C@H]21 [Lovastatin, lovastatin] | inhibit | inhibit | inhibit | – | –
CC(C)c1c(C(=O)Nc2ccccc2)c(-c2ccccc2)c(-c2ccc(F)cc2)n1CC[C@@H](O)C[C@@H](O)CC(=O)O [atorvastatin] | – | – | – | reduced compared with control animals | delayed in a dose-dependent manner
CO[C@@H]1COCC[C@@H]1N[C@@H]1CC[C@@](C(=O)N2CCc3ncc(C(F)(F)F)cc3C2)(C(C)C)C1 [Compound 1, N-((1R,3S)-3-isopropyl-3-{[3-(trifluoromethyl)-7,8-dihydro-1,6-naphthyridin-6(5H)-yl]carbonyl}cyclopentyl)-N-[(3S,4S)-3-methoxytetrahydro-2H-pyran-4-yl]amine] | – | – | – | reduced compared with control animals | delayed in a dose-dependent manner
CC(C)[C@]1(C(=O)N2COc3ccc(C(F)(F)F)cc3C2)CC[C@@H](N2CC[C@@H](c3cccc(C(=O)O)c3)[C@H](C)C2)C1 (single isomer, unassigned) [Compound 4, 3-[(3S,4R or 3R,4S)-1-((1R,3S)-3-Isopropyl-3-{[6-(trifluoromethyl)-2H-1,3-benzoxazin-3(4H)-yl]carbonyl}cyclopentyl)-3-methylpiperidin-4-yl]benzoic acid] | – | – | – | reduced compared with control animals | delayed in a dose-dependent manner
